From patent US20070093520A1, “Method of treatment of diarrhea-predominant irritable bowel syndrome in a subject” (priority 2005, published 2007)

System: diarrhea-predominant IBS subjects
Assay: 3007 Study: open-label 52-week safety study, adverse events and withdrawals
[1] = Overall, N=536, % of appropriate gender

## Cc1nccn1C[C@H]1CCc2c(c3cccc4c3n2CCC4)C1=O [cilansetron, (R)-(−)-4,5,6,8,9,10-hexahydro-10-[(2-methyl-1H-imidazol-1-yl)methyl]-11H-pyrido-[3,2,1-jk]-carbazol-11-one]
Overall, N=536
  TEAE leading to permanent discontinuation: Dyspepsia: 2 (<1%) n (%)
  TEAE leading to permanent discontinuation: Ear and Labyrinth Disorders: 1 (<1%) n (%)
  TEAE leading to permanent discontinuation: Epigastric Discomfort: 1 (<1%) n (%)
  TEAE leading to permanent discontinuation: Eructation: 1 (<1%) n (%)
  TEAE leading to permanent discontinuation: Eye Disorders: 1 (<1%) n (%)
  TEAE leading to permanent discontinuation: Faecal Abnormality NOS: 1 (<1%) n (%)
  TEAE leading to permanent discontinuation: Faecal Impaction: 1 (<1%) n (%)
  TEAE leading to permanent discontinuation: Faecal Incontinence: 1 (<1%) n (%)
  TEAE leading to permanent discontinuation: Faeces Hard: 1 (<1%) n (%)
  TEAE leading to permanent discontinuation: Fatigue: 4 (<1%) n (%)
  TEAE leading to permanent discontinuation: Fibroma NOS: 1 (<1%) n (%)
  TEAE leading to permanent discontinuation: Flatulence: 7 (1%) n (%)
  TEAE leading to permanent discontinuation: Gastric Irritation: 1 (<1%) n (%)
  TEAE leading to permanent discontinuation: Gastrointestinal Disorders: 64 (12%) n (%)
  TEAE leading to permanent discontinuation: Gastrointestinal Motility Disorder NOS: 1 (<1%) n (%)
  TEAE leading to permanent discontinuation: General Disorders and Administration Site Conditions: 7 (1%) n (%)
  TEAE leading to permanent discontinuation: Haemorrhoidal Haemorrhage: 1 (<1%) n (%)
  TEAE leading to permanent discontinuation: Hallucination NOS: 1 (<1%) n (%)
  TEAE leading to permanent discontinuation: Hallucination, Auditory: 1 (<1%) n (%)
  TEAE leading to permanent discontinuation: Headache NOS: 4 (<1%) n (%)
  TEAE leading to permanent discontinuation: Headache NOS Aggravated: 1 (<1%) n (%)
  TEAE leading to permanent discontinuation: Heart Rate Increased: 1 (<1%) n (%)
  TEAE leading to permanent discontinuation: Hepatobiliary Disorders: 1 (<1%) n (%)
  TEAE leading to permanent discontinuation: Hepatosplenomegaly NOS: 1 (<1%) n (%)
  TEAE leading to permanent discontinuation: Hiatus Hernia: 1 (<1%) n (%)
  TEAE leading to permanent discontinuation: Investigations: 5 (<1%) n (%)
  TEAE leading to permanent discontinuation: Irritable Bowel Syndrome Aggravated: 1 (<1%) n (%)
  TEAE leading to permanent discontinuation: Lethargy: 1 (<1%) n (%)
  TEAE leading to permanent discontinuation: Metabolism and Nutrition Disorders: 1 (<1%) n (%)
  TEAE leading to permanent discontinuation: Migraine NOS: 1 (<1%) n (%)
  TEAE leading to permanent discontinuation: Muscle Cramps: 2 (<1%) n (%)
  TEAE leading to permanent discontinuation: Musculoskeletal and Connective Tissue Disorders: 7 (1%) n (%)
  TEAE leading to permanent discontinuation: Nausea: 3 (<1%) n (%)
  TEAE leading to permanent discontinuation: Neoplasms Benign, Malignant and Unspecified (Incl Cysts and Polyps): 5 (<1%) n (%)
  TEAE leading to permanent discontinuation: Nervous System Disorders: 8 (1%) n (%)
  TEAE leading to permanent discontinuation: Pregnancy, Puerperium and Perinatal Conditions: 1 (<1%) n (%)
  TEAE leading to permanent discontinuation: Pruritus NOS: 1 (<1%) n (%)
  TEAE leading to permanent discontinuation: Psychiatric Disorders: 1 (<1%) n (%)
  TEAE leading to permanent discontinuation: Psychotic Disorder NOS: 1 (<1%) n (%)
  TEAE leading to permanent discontinuation: Rash Macular: 1 (<1%) n (%)
  TEAE leading to permanent discontinuation: Rash NOS: 1 (<1%) n (%)
  TEAE leading to permanent discontinuation: Rectal Disorder NOS: 1 (<1%) n (%)
  TEAE leading to permanent discontinuation: Rectal Haemorrhage: 4 (<1%) n (%)
  TEAE leading to permanent discontinuation: Rectal Tenesmus: 1 (<1%) n (%)
  TEAE leading to permanent discontinuation: Renal and Urinary Disorders: 1 (<1%) n (%)
  TEAE leading to permanent discontinuation: Respiratory, Thoracic and Mediastinal Disorders: 3 (<1%) n (%)
  TEAE leading to permanent discontinuation: Skin and Subcutaneous Tissue Disorders: 4 (<1%) n (%)
  TEAE leading to permanent discontinuation: Somnolence: 1 (<1%) n (%)
  TEAE leading to permanent discontinuation: Stomach Discomfort: 1 (<1%) n (%)
  TEAE leading to permanent discontinuation: Suicidal Ideation: 1 (<1%) n (%)
  TEAE leading to permanent discontinuation: Urticaria NOS: 1 (<1%) n (%)
  TEAE leading to permanent discontinuation: Vertigo: 1 (<1%) n (%)
  TEAE leading to permanent discontinuation: Visual Acuity Reduced: 1 (<1%) n (%)
  TEAE leading to permanent discontinuation: Vomiting NOS: 1 (<1%) n (%)
  TEAE leading to permanent discontinuation: White Blood Cells Urine Positive: 1 (<1%) n (%)
  Total Number of Subjects with at Least One TEAE Leading to Discontinuation of Study Medication: 83 (15%) n (%)
[1]
  TEAE leading to permanent discontinuation: Benign Ovarian Tumour*: 1 (<1%) n (%)
  TEAE leading to permanent discontinuation: Breast Cancer NOS*: 2 (<1%) n (%)
  TEAE leading to permanent discontinuation: Ovarian Cancer NOS*: 1 (<1%) n (%)
  TEAE leading to permanent discontinuation: Ovarian Cystadenofibroma*: 1 (<1%) n (%)
  TEAE leading to permanent discontinuation: Pregnancy NOS*: 1 (<1%) n (%)
Overall, gender-specific
  TEAE: Female Reproductive Tract Infections*: 2 (<1%) n (%)
  TEAE: Prostate Examination Abnormal*: 1 (<1%) n (%)
  TEAE: Smear Cervix Abnormal*: 1 (<1%) n (%)
  TEAE: Vaginal Candidiasis*: 2 (<1%) n (%)
  TEAE: Vaginitis Bacterial NOS*: 1 (<1%) n (%)
  TEAE: Vaginitis*: 1 (<1%) n (%)
  TEAE: Vaginosis Fungal NOS*: 2 (<1%) n (%)
P/C group
  TEAE: Abdominal Therapeutic Procedures NEC: 1 (<1%) n (%)
  TEAE: Abdominoplasty: 1 (<1%) n (%)
  TEAE: Abnormal Chest Sounds NOS: 1 (<1%) n (%)
  TEAE: Acne NOS: 0 n (%)
  TEAE: Acnes: 0 n (%)
  TEAE: Acquired Hypothyroidism: 1 (<1%) n (%)
  TEAE: Acrochordons: 1 (<1%) n (%)
  TEAE: Adenomyosis*: 0 n (%)
  TEAE: Age Related Issues: 1 (<1%) n (%)
  TEAE: Allergic Conditions NEC: 2 (<1%) n (%)
  TEAE: Allergies to Foods, Food Additives, Drugs and Other Chemicals: 1 (<1%) n (%)
  TEAE: Allergy to Insect Sting: 1 (<1%) n (%)
  TEAE: Alopecia: 1 (<1%) n (%)
  TEAE: Alopecias: 1 (<1%) n (%)
  TEAE: Amenorrhoea NOS*: 0 n (%)
  TEAE: Anaemia NOS: 1 (<1%) n (%)
  TEAE: Anaemias NEC: 1 (<1%) n (%)
  TEAE: Angina Pectoris: 0 n (%)
  TEAE: Anorexia: 1 (<1%) n (%)
  TEAE: Anxiety: 5 (2%) n (%)
  TEAE: Anxiety Aggravated: 1 (<1%) n (%)
  TEAE: Anxiety Symptoms: 7 (3%) n (%)
  TEAE: Apocrine and Eccrine Gland Disorders: 3 (1%) n (%)
  TEAE: Appetite Disorders: 1 (<1%) n (%)
  TEAE: Arrhythmia NOS: 0 n (%)
  TEAE: Asthenic Conditions: 7 (3%) n (%)
  TEAE: Asthma Aggravated: 0 n (%)
  TEAE: Asthma NOS: 1 (<1%) n (%)
  TEAE: Atopic Disorders: 1 (<1%) n (%)
  TEAE: Atrial Fibrillation: 0 n (%)
  TEAE: Atrioventricular Block First Degree: 0 n (%)
  TEAE: Basal Cell Carcinoma: 4 (1%) n (%)
  TEAE: Behaviour and Socialisation Disturbances: 1 (<1%) n (%)
  TEAE: Benign Ovarian Tumour*: 1 (<1%) n (%)
  TEAE: Biliary Tract Disorder NOS: 1 (<1%) n (%)
  TEAE: Binocular Eye Movement Disorder NOS: 1 (<1%) n (%)
  TEAE: Bladder Disorders NEC: 1 (<1%) n (%)
  TEAE: Bladder Infections and Inflammations: 1 (<1%) n (%)
  TEAE: Bladder Prolapse: 1 (<1%) n (%)
  TEAE: Bladder and Urethral Symptoms: 1 (<1%) n (%)
  TEAE: Blood and Lymphatic System Disorders: 2 (<1%) n (%)
  TEAE: Bone Neoplasm Malignant: 0 n (%)
  TEAE: Bone Neoplasms Malignant (Excl Sarcomas): 0 n (%)
  TEAE: Bradyarrhythmia: 1 (<1%) n (%)
  TEAE: Breast Calcifications*: 1 (<1%) n (%)
  TEAE: Breast Cancer NOS*: 2 (1%) n (%)
  TEAE: Breast Disorder NOS*: 1 (<1%) n (%)
  TEAE: Breast Disorders NEC*: 4 (2%) n (%)
  TEAE: Breast Mass NOS*: 2 (1%) n (%)
  TEAE: Breast and Nipple Neoplasms Malignant*: 2 (1%) n (%)
  TEAE: Breath Sounds Decreased: 0 n (%)
  TEAE: Breathing Abnormalities: 1 (<1%) n (%)
  TEAE: Bronchospasm and Obstruction: 1 (<1%) n (%)
  TEAE: Bruising, Ecchymosis and Purpura: 0 n (%)
  TEAE: Bundle Branch Block Right: 0 n (%)
  TEAE: Calculus Renal NOS: 0 n (%)
  TEAE: Calculus Ureteric: 0 n (%)
  TEAE: Cardiac Conduction Disorders: 0 n (%)
  TEAE: Cardiac Disorders: 6 (2%) n (%)
  TEAE: Cardiac Fibrillation NOS: 1 (<1%) n (%)
  TEAE: Cardiac Flutter: 1 (<1%) n (%)
  TEAE: Cardiac Signs and Symptoms NEC: 2 (<1%) n (%)
  TEAE: Cataract Unilateral: 0 n (%)
  TEAE: Cataracts (Excl Congenital): 1 (<1%) n (%)
  TEAE: Cerumen Impaction: 0 n (%)
  TEAE: Chest Discomfort: 1 (<1%) n (%)
  TEAE: Chest Pain: 4 (1%) n (%)
  TEAE: Chest Tightness: 0 n (%)
  TEAE: Cholecystitis and Cholelithiasis: 0 n (%)
  TEAE: Cholelithiasis: 0 n (%)
  TEAE: Congenital, Familial and Genetic Disorders: 1 (<1%) n (%)
  TEAE: Conjunctival Infections, Irritations and Inflammations: 0 n (%)
  TEAE: Conjunctivitis: 0 n (%)
  TEAE: Conjunctivitis Allergic: 0 n (%)
  TEAE: Contusion: 2 (<1%) n (%)
  TEAE: Cough: 6 (2%) n (%)
  TEAE: Coughing and Associated Symptoms: 6 (2%) n (%)
  TEAE: Cyst NOS: 0 n (%)
  TEAE: Cystitis Interstitial: 1 (<1%) n (%)
  TEAE: Dacryostenosis Acquired: 0 n (%)
  TEAE: Deafness NOS: 0 n (%)
  TEAE: Dehydration: 1 (<1%) n (%)
  TEAE: Depression: 5 (2%) n (%)
  TEAE: Depression Aggravated: 1 (<1%) n (%)
  TEAE: Depressive Disorders: 6 (2%) n (%)
  TEAE: Dermal and Epidermal Conditions NEC: 4 (1%) n (%)
  TEAE: Dermatitis Allergic: 1 (<1%) n (%)
  TEAE: Dermatitis Ascribed to Specific Agent: 1 (<1%) n (%)
  TEAE: Dermatitis Contact: 1 (<1%) n (%)
  TEAE: Dermatitis Medicamentosa: 1 (<1%) n (%)
  TEAE: Dermatitis NOS: 1 (<1%) n (%)
  TEAE: Dermatitis and Eczema: 4 (1%) n (%)
  TEAE: Dermographism: 1 (<1%) n (%)
  TEAE: Diabetes Mellitus (Incl Subtypes): 1 (<1%) n (%)
  TEAE: Diabetes Mellitus Aggravated: 1 (<1%) n (%)
  TEAE: Diabetes Mellitus Non-Insulin-Dependent: 0 n (%)
  TEAE: Disturbances in Initiating and Maintaining Sleep: 0 n (%)
  TEAE: Drug Hypersensitivity: 0 n (%)
  TEAE: Dry Eye NOS: 0 n (%)
  TEAE: Dysfunctional Uterine Bleeding*: 0 n (%)
  TEAE: Dyshidrosis: 1 (<1%) n (%)
